Test results taken from patent US9296716B2, “Androgen receptor ligands” (THE PROVOST, FELLOWS, FOUNDATION SCHOLARS, & THE OTHER …, priority 2011, dated 2016).

What was measured:
[1] = target: Estrogen Receptor beta (ER-β) LBD (Homo sapiens, UniProt Q92731); assay: TR-FRET PGC1-α coactivator recruitment assay, ERβ LBD; assay type: biochemical; details: Estradiol = EC80
Description: (§1) Compound binding affinities for Progesterone Receptor (PR), Glucocorticoid Receptor (GR), Estrogen Receptor alpha and Estrogen Receptor beta were determined using TR-FRET (Table 2).
(§2) Selectivity of the diarylhydrazide scaffold for the AR was determined through a TR-FRET assay in ERα (FIGS. 8A & 9A1) and ERR (FIGS. 8B & 9A2). […] The non-LBP nature of this inhibition was confirmed by a FP assay (FIGS. 9C, 9B1 & 9B2).
(§3) Lanthascreen TR-FRET AR Coactivator Assay kit (Invitrogen, cat no. PV4381) was used to screen for potential coactivator disruptors.
(§4) TR FRET values were calculated at 10 flashes per well, using a delay time of 100 μs and integration time 200 μs as recommended by the Invitrogen assay guidelines. […] A serial dilution of compounds was firstly prepared in 100×DMSO (Sigma-Aldrich) starting from the maximum desired concentration to achieve a 12 point range concentration using 96-well polypropylene plates (Nalgene Nunc, Rochester, N.Y.). Each 100× solution was diluted to 2× concentration with TR-FRET co-regulator buffer A (Invitrogen proprietary buffer), yielding a final concentration of 1% DMSO in each well.
(§5) D11-FxxLF and Tb antibody were premixed in light protecting vials prior to use. A final concentration of DTT 5 mM was used in the assay buffer in order to prevent protein degradation. All plates (agonist and antagonist mode) were incubated between 2 and 4 hours at room temperature protected from light prior to TR-FRET measurement. […] Data was fitted using the sigmoidal dose response (variable slope) available from Graphpad Prism 5. Y=Bottom+(Top-Bottom)/(1+10^((Log IC50−X)*HillSlope))
(§6) The same procedure was used for AR T877A (Invitrogen cat no. PV4667), PR (Invitrogen cat no. PV4666), ER-α (Invitrogen cat no. PV4544), ER-β (Invitrogen cat no. PV4541) and GR (Invitrogen cat no. PV4683). The assay was adapted to exclude possible non-specific aggregation mechanism of inhibition by adding very low concentration of detergent Triton X-100 (0.001%) to the assay buffer following the Shoichet review guidelines [Shoichet BK (2006) Screening in a spirit haunted world. Drug Discov Today 11:607-615].

[2] = tested on: PSA expression in LNCaP cells; assay: PSA ELISA, secreted PSA in LNCaP cells; assay type: cell-based
Description: To investigate compounds effect on PSA expression, a common biomarker for prostate cancer, we utilized a human PSA ELISA assay.
(§7) For cell viability (end point) assays LNCaP, PC-3 and PWR-1E cells were seeded at 2.5*10^4/ml density in 200 μl volume of a 96-well plate in triplicate and incubated for 24 hours prior testing. Test compounds were included at different concentrations to achieve a final concentration of 0.5% DMSO in each well. Effect of 0.5% DMSO on cell-viability was also evaluated. Cell viability was assessed after 24 hours of treatment using 10% Alamar Blue reagent (Invitrogen) for each well. Cell viability was monitored by the reduction of resazurin, a blue, cell-permeable and non-toxic compound, to resorufin, a red and highly fluorescent product. Viable cells continuously convert resazurin to resorufin, increasing the overall colour and fluorescence of the media surrounding cells. Fluorescence intensity can be quantitatively determined with a fluorescence microplate reader at excitation/emission 544 nm/590 nm (Spectramax Gemini). For hormone dependent cell proliferation assays in androgen deprived LNCaP cells, cells were seeded at 2*10^4 cells/ml in a 24-well plate in triplicate. Cells were plated in phenol red free RPMI Glutamax (Invitrogen) supplemented with 10% charcoal-stripped FBS to deplete endogenous steroids 48 hours prior the assay as described in previous reports. […] Cells were treated with different concentrations of test compounds with or without 0.1 nM DHT to achieve a final concentration of 0.1% DMSO in each well. A control for the vehicle was included to ensure no effect on viability could be detected. Media and treatments were replaced every second day, after washing the cells twice with 1×PBS. Supernatants were collected after five days for secreted PSA levels evaluation and cell proliferation was assessed for the same plate using Alamar Blue in order to exclude non-specific effects due to toxicity issues.
Secreted levels of prostate specific antigen were evaluated with a commercially available kit (Quantikine Human Kallikrein 3/PSA Immunoassay, R&D systems). The assay was performed following manufacturer's guidelines. In brief, 50 μl of standards and cell culture samples were added to pre-coated wells containing assay diluent RD1W (R&D systems) and incubated for two hours at room temperature. […] Wells were washed and treated with colored substrate (Tetramethylbenzidine) for an additional 30 minutes, after which 50 μl of stop solution (Sulphuric Acid 2N) was added per well and absorbance (450 nm with correction at 540 nm) was read with a plate reader within 30 minutes (Versamax).

LNCaP cells = assay: LNCaP cell proliferation assay (androgen deprived, AlamarBlue); assay type: cell-based; details: LNCaP
Description: To determine the optimal DHT concentration and length of treatment required for cell proliferation assays, we tested a range of DHT concentrations in 0.1% DMSO for 5 or 7 days in LNCaP cells cultured in FBS stripped phenol red free media. […] Media and treatments were replaced every second incubation day (FIGS. 12 A and B)
as §7

AR-LBD T877A mutant = target: T1, AR-LBD T877A mutant (Homo sapiens, UniProt P10275, T878A); assay: TR-FRET coactivator assay, AR T877A mutant; assay type: biochemical; details: D11-FxxLF peptide, DHT = EC80
T1 construct: purchased Invitrogen PV4667
T1 sequence (P10275 669-900 T878A): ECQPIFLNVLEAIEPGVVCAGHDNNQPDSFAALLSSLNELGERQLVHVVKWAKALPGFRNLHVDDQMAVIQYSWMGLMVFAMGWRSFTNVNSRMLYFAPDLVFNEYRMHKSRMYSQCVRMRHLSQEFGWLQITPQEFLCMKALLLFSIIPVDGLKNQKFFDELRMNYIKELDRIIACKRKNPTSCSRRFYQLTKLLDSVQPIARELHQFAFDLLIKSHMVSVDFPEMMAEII

[3] = target: T2, Estrogen Receptor alpha (ER-α) LBD (Homo sapiens, UniProt P03372); assay: TR-FRET PGC1-α coactivator recruitment assay, ERα LBD; assay type: biochemical; details: Estradiol = EC80
T2 sequence (P03372 311-547 limits assumed): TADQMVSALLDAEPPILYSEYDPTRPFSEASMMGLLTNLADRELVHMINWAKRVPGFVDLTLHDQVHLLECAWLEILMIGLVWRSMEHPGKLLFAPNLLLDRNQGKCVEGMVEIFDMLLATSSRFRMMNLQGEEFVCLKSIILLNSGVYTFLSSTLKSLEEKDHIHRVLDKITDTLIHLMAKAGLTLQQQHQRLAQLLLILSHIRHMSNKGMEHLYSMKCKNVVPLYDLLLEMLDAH
Description: as §1, §2, §3, §4, §5, §6

Estrogen Receptor beta (ER-β) LBD, sequence (Q92731 264-498 limits assumed): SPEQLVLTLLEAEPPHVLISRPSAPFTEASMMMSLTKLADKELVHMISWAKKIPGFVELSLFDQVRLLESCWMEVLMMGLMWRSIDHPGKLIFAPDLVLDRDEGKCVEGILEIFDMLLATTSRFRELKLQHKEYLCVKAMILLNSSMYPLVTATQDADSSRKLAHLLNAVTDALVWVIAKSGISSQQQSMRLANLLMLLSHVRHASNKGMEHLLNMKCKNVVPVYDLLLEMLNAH

## COc1cc(/C=N/NC(=O)c2cc3c(ccc4ccccc43)o2)cc(OC)c1O [MDG506]
[1]; 100 μM to 45 nM
  effect on ERβ recruitment of fluorescent labelled PGC1-α: partially inhibit
[1]; TR-FRET, ± SEM (n = 6), read-out: NR LBDs IC50 (μM) ER-β
  IC50: > 100 µM
[2]
  PSA expression in absence of androgens: does not induce
[2]; MDG506 at 10 or 20 μM
  CPA stimulated PSA secretion / expression: significantly (P<0.001) reduces
[2]; concentrations up to 20 μM
  DHT stimulated PSA expression: dose dependent inhibition
LNCaP cells; DHT 0.1 nM, 5 days
  DHT dependent cell proliferation: clear dose dependent effect in reducing
LNCaP cells; MDG506 at 10 or 20 μM
  CPA induced cell proliferation: reduces
LNCaP cells; androgen deprived media, no DHT
  cell proliferation in absence of DHT / androgens: does not induce
AR-LBD T877A mutant
  IC50: 33.2 ± 5.9 µM
[3]; 100 μM to 45 nM
  effect on ERα recruitment of fluorescent labelled PGC1-α: partially inhibit
[3]; TR-FRET, ± SEM (n = 6), read-out: NR LBDs IC50 (μM) ER-α
  IC50: > 100 µM
